Measured values: US20240245677A1, “SELECTED COMPOUNDS FOR TARGETED DEGRADATION OF BRD9” (C4 THERAPEUTICS, INC., priority 2021, published 2024)
Read-outs that look alike come from different tables or passages of the source.

How the values were obtained:
[1] = Crystallization by vapor diffusion; type: physicochemical
Method: Based on approximate solubility results, about 20 mg of Compound 1 free form Pattern E was dissolved in the minimal amount of good solvent in 2 mL glass vial without lid. Then the 2 mL lid less vial was placed to 8 mL vial. To the 8 mL vial was added anti-solvent. Then the 8 mL vial was capped and placed at ambient condition. Precipitates were collected by centrifugation filtration through a 0.45 μm nylon membrane filter at 14,000 rpm for 5 min. Solid parts (wet cakes) were investigated by XRPD.

BRD9 = biological target: T1, BRD9 (Homo sapiens, UniProt Q9H8M2); assay: BRD9 HiBiT degradation assay in 293T.166 (HEK293T.166) cells; type: cell-based; design: endogenously expressing BRD9 with HiBiT fusion tag via CRISPR; host or cells: HEK293T.166 (293T.166, BRD9-HiBiT HEK293, LgBiT by lentivirus)
T1 sequence (Q9H8M2 1-597): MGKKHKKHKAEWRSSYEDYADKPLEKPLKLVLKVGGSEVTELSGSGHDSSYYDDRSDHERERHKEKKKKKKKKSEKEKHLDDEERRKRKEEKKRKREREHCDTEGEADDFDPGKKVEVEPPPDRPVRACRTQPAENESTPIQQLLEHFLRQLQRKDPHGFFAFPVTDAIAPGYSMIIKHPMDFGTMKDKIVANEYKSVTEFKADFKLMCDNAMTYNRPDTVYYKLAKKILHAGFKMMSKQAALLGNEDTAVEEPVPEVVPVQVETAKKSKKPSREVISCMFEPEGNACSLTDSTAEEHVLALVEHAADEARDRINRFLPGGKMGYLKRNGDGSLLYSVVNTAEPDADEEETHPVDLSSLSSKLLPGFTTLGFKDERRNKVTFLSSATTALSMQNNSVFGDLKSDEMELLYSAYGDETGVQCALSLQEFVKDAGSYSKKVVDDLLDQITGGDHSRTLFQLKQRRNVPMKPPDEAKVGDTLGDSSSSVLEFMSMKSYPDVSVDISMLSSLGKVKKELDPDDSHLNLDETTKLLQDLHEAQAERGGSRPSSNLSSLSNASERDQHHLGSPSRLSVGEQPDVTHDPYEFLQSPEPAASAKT
Method: Selected compounds were tested in a BRD9 degradation assay using the HiBit Method.
Dulbecco's modified Eagle medium (DMEM) without phenol red and fetal bovine serum (FBS) were purchased from Gibco (Grand Island, NY, USA). Nano-Glo® HiBiT Lytic Assay System was purchased from Promega (Madison, WI, USA). 293T.166 (BRD9-HiBiT) cell line, endogenously expressing BRD9 with HiBiT fusion tag via CRISPR and ectopically expressing LgBiT tag, was purchased from Promega (Madison, WI, USA). 293T.167 (BRD7-HiBiT) cell line, endogenously expressing BRD7 with HiBiT fusion tag via CRISPR and ectopically expressing LgBiT tag, was purchased from Promega (Madison, WI, USA). 293T.92 (BRD4-HiBiT) cell line, endogenously expressing BRD4 with HiBiT fusion tag via CRISPR and ectopically expressing LgBiT tag, was generated in-house. Cell culture flasks and 384-well microplates were acquired from VWR (Radnor, PA, USA).
BRD9 degradation was determined based on quantification of luminescent signal using Nano-Glo® HiBiT Lytic Assay kit. Test compounds were added to the 384-well plate from a top concentration of 10 μM with 11 points, half log titration in duplicates. 293T.166 cells were added into 384-well plates at a cell density of 10,000 cells per well. The plates were kept at 37° C. with 5% CO2 for 2 hours. BRD7 and BRD4 degradation was similarly determined with 293T.167 cells and 293T.92 cells, respectively. The cells treated in the absence of the test compound were the negative control and the cells without Nano-Glo® HiBiT Lytic reagent were the positive control. After 2-hour incubation, Nano-Glo® HiBiT Lytic Assay reagents were added to the cells. Luminescence was acquired on EnVision® Multilabel Reader (Catalog No. 2104-0010, Perkin Elmer Inc., Dumfries, VA, USA).
This assay evaluates the degradation of BRD9 induced by treatment with Compound 1 or Compound 2 as measured by luminescence using Nano-Glo® HiBiT Lytic Assay System in HEK293 cells CRISPR-edited to endogenously express HiBiT tagged BRD9 and exogenously express LgBiT protein.
Nano-Glo® HiBiT Lytic Assay System was purchased from Promega (Catalog No. N3050, Madison, WI, USA). BRD9-HiBiT HEK293 cells were purchased from Promega (Catalog No. CS302348, Madison, WI, USA). The cells were maintained in Dulbecco's modified Eagle medium (DMEM) without phenol red (Catalog No. 12430112, ThermoFisher Scientific, Waltham, MA, USA) supplemented with 10% fetal bovine serum (FBS) (Catalog No. 16000-044, Gibco, Grand Island, NY, USA) at 37° C. in an atmosphere of 5% CO2 in air. The HiBiT polypeptide tag was introduced into the C-terminus of the endogenous BRD9 locus by CRISPR-Cas9 and the LgBiT protein was introduced via Lentiviral infection to produce the modified HEK293T.166 cell line. The HiBiT polypeptide and LgBiT protein allow reconstitution of NanoBiT enzyme in the cells. The Nano-Glo® HiBiT Lytic Substrate was then added and activated by the NanoBiT enzyme following cell lysis to produce a luminescent signal that is directly proportional to the amount of HiBiT-tagged BRD9.
The HEK293T.166 cells were routinely sub-cultured to maintain cell density between 30-80% confluence, not to exceed 20 passages. Cells were washed with PBS pH 7.4 (Catalog No. 10010049, ThermoFisher Scientific, Waltham, MA, USA), trypsinized for 5 minutes at 37° C., and resuspended in fresh growth media without phenol red. An aliquot was diluted 2× with Trypan Blue solution 0.4% (Catalog No. 15250061, ThermoFisher Scientific, Waltham, MA, USA) and cell count determined. Cell concentration was adjusted with growth media without phenol red to 3.3×10^5 cells/mL.
Compound 1 or Compound 2 was prepared by dissolving neat compounds in DMSO (Catalog No. D8418, Sigma-Aldrich, Inc., St. Louis, MO, USA) to generate 10 mM stock solution and stored at −20° C. […]

In the case of COc1cc(-c2cn(C)c(=O)c(C)c2C)cc(OC)c1CN1CC[C@H](N2CCN(c3ccc(N[C@H]4CCC(=O)NC4=O)cc3F)CC2)C(F)(F)C1 [Compound 1, (S)-3-((4-(4-((S)-1-(2,6-dimethoxy-4-(1,4,5-trimethyl-6-oxo-1,6-dihydropyridin-3-yl)benzyl)-3,3-difluoropiperidin-4-yl)piperazin-1-yl)-3-fluorophenyl)amino)-piperidine-2,6-dione], the Comments ([1]; vapor diffusion, 1,4-Dioxane/50, anti-solvent MTBE/600) is reported as “Gum-like sample”, the Comments ([1]; vapor diffusion, 2-MeTHF/120, anti-solvent MTBE/1080) is reported as “Gum-like sample” and the Comments ([1]; vapor diffusion, THF/50, anti-solvent MTBE/600) is reported as “Gum-like sample”. For the same molecule, the “% BRD9 Remaining Relative to Vehicle Control at 2 hr, Mean” value (BRD9; 0.010 nM) was 92.3%, the “% BRD9 Remaining Relative to Vehicle Control at 2 hr, Mean” value (BRD9; 0.032 nM) was 96.4% and the “% BRD9 Remaining Relative to Vehicle Control at 2 hr, Mean” value (BRD9; 0.100 nM) was 91.6%. For the same molecule, the “% BRD9 Remaining Relative to Vehicle Control at 2 hr, Mean” value (BRD9; 0.315 nM) was 86.4%, the “% BRD9 Remaining Relative to Vehicle Control at 2 hr, Mean” value (BRD9; 0.997 nM) was 76.7% and the “% BRD9 Remaining Relative to Vehicle Control at 2 hr, Mean” value (BRD9; 3.15 nM) was 51.6%. The “% BRD9 Remaining Relative to Vehicle Control at 2 hr, Mean” value (BRD9; 10.0 nM) was 21.7%, the “% BRD9 Remaining Relative to Vehicle Control at 2 hr, Mean” value (BRD9; 31.7 nM) was 7.9% and the “% BRD9 Remaining Relative to Vehicle Control at 2 hr, Mean” value (BRD9; 100 nM) was 5.0%. The “% BRD9 Remaining Relative to Vehicle Control at 2 hr, Mean” value (BRD9; 316 nM) was 5.7%, the “% BRD9 Remaining Relative to Vehicle Control at 2 hr, Mean” value (BRD9; 999 nM) was 4.8% and the DC50 (BRD9; 293T.166 cells, 2.0 hours, read-out: HiBiT-Degradation 293T.166 BRD9 2.0 hours (DC50)) was < 0.1 µM. The Emax (BRD9; BRD9-HiBiT, 293T.166 cells, 2 hours, read-out: Mean Emax (%) ± SD) was 4.14 ± 1.15%, the Dmax (BRD9; HEK293T.166 cells, 2-hour treatment, read-out: maximal degradation of BRD9) was > 95% and the DC50 (BRD9; summary statement, read-out: DC50 against BRD9) was 0.002 to 0.075 µM.
